What was measured:
[1] = biological target: T1, LIMK2KD (Homo sapiens, UniProt P53671); experiment: Differential (dynamic) scanning fluorimetry (DSF) assay, LIMK2KD; assay type: binding; settings: LIMK2KD, compound 10 µM, single shot; for ΔTm at 10 µM: read-out: TM Shift LIMK2 (K)
T1 construct: The cDNA coding for LIMK2 residues 330 to 632 was PCR amplified; His6 (N, cleaved yes); made in house; host or cells: baculovirus; Sf9 for virus, TriEx insect cells for expression

[2] = biological target: T2, LIMK1KD (Homo sapiens, UniProt P53667); experiment: Differential (dynamic) scanning fluorimetry (DSF) assay, LIMK1KD; assay type: binding; settings: 2 µM LIMK1KD, compound 10 µM, single shot; for ΔTm at 10 µM: read-out: TM Shift LIMK1 (K)
T2 construct: His6 (N, cleaved yes); made in house; host or cells: baculovirus; Sf9 for virus, TriEx insect cells for expression
T2 sequence (P53667 330-637): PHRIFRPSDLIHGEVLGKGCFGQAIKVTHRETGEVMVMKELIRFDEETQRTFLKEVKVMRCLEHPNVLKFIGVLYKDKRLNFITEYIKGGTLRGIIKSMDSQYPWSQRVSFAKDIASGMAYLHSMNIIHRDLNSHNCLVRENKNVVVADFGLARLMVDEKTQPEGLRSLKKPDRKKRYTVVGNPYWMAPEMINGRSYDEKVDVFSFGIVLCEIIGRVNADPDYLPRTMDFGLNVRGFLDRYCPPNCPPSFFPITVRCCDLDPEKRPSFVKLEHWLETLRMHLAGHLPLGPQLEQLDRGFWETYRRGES

T1 sequence (P53671 330-632): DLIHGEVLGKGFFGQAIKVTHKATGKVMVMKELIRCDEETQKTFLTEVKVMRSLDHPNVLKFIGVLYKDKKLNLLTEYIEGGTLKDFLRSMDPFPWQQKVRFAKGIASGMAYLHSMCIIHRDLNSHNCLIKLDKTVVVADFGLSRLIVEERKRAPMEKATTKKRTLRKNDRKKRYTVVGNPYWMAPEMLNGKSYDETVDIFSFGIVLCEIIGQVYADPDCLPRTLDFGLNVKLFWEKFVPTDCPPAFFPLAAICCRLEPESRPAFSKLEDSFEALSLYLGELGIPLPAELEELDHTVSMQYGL

SMILES: N#CC[C@H](C1CCCC1)n1cc(-c2ncnc3[nH]ccc23)cn1 [Ruxolitinib (INCB018424), Ruxolitinib]
- ΔTm at 10 µM [1]: 2.6 °C
- ΔTm at 10 µM [2]: 1.6 °C

SMILES: COc1ccc(F)c(F)c1C(=O)c1cnc(NC2CCN(S(C)(=O)=O)CC2)nc1N [R547]
- TM Shift LIMK2 (K) [1]: -0.2 K
- TM Shift LIMK1 (K) [2]: 0.1 K

SMILES: COc1ccc(Cl)cc1NC(=O)Nc1cc(C)nc2ccccc12 [PQ 401]
- TM Shift LIMK2 (K) [1]: -0.9 K
- TM Shift LIMK1 (K) [2]: 0.2 K

SMILES: c1cncc(CN2CCC(n3ncc4c(N5CCOCC5)nc(-c5ccc6[nH]ccc6c5)nc43)CC2)c1 [WAY-600]
- TM Shift LIMK2 (K) [1]: -0.2 K
- TM Shift LIMK1 (K) [2]: -0.1 K

SMILES: CN(c1ncccc1CNc1nc(Nc2ccc3c(c2)CC(=O)N3)ncc1C(F)(F)F)S(C)(=O)=O [PF-562271]
- TM Shift LIMK2 (K) ([1]; 10 µM): -0.7 K
- TM Shift LIMK1 (K) [2]: -0.5 K

SMILES: N#CCNC(=O)c1ccc(-c2ccnc(Nc3ccc(N4CCOCC4)cc3)n2)cc1 [CYT387]
- TM Shift LIMK2 (K) ([1]; 10 µM): 0.8 K
- TM Shift LIMK1 (K) [2]: 1.2 K

SMILES: CCn1c(-c2nonc2N)nc2cnc(Oc3cccc(NC(=O)c4ccc(OCCN5CCOCC5)cc4)c3)cc21 [GSK269962]
- TM Shift LIMK2 (K) [1]: 0.1 K
- TM Shift LIMK1 (K) [2]: 1.0 K

SMILES: NC(=O)c1ncn([C@@H]2O[C@H](CO)[C@@H](O)[C@H]2O)c1N [Acadesine]
- ΔTm at 10 µM [1]: 2.1 °C
- ΔTm at 10 µM [2]: 0.7 °C

SMILES: Cc1nc(Nc2n[nH]c3c2CN(C(=O)N[C@H](CN(C)C)c2ccccc2)C3(C)C)c2sccc2n1 [PF-03758309]
- TM Shift LIMK2 (K) [1]: -0.4 K
- TM Shift LIMK1 (K) [2]: 0.7 K

SMILES: CN1CCC(c2c(O)cc(O)c3c(=O)cc(-c4ccccc4Cl)oc23)C1CO (stereo not shown) [P276-00]
- TM Shift LIMK2 (K) [1]: 1.3 K
- TM Shift LIMK1 (K) [2]: 0.7 K

SMILES: Cn1c(=O)n(-c2ccc(C(C)(C)C#N)cc2)c2c3cc(-c4cnc5ccccc5c4)ccc3ncc21 [Dactolisib]
- TM Shift LIMK2 (K) ([1]; 10 µM): -0.3 K
- TM Shift LIMK2 (K) ([1]; listed as BEZ235 (NVP-BEZ235, Dactolisib), 10 µM): 0.1 K
- TM Shift LIMK1 (K) [2]: 0.3 K
- TM Shift LIMK1 (K) ([2]; listed as BEZ235 (NVP-BEZ235, Dactolisib)): -0.1 K

SMILES: Cc1cc(Nc2ncnc3ccc(-c4ccc(CNCCS(C)(=O)=O)o4)cc23)ccc1Oc1ccn2ncnc2c1 [HER2-Inhibitor-1]
- TM Shift LIMK2 (K) [1]: 0.2 K
- TM Shift LIMK1 (K) [2]: 2.0 K

SMILES: Nc1nccc(-c2c(-c3ccc(F)cc3)ncn2C2CCCCC2)n1 [PF-670462]
- TM Shift LIMK2 (K) [1]: -0.2 K
- TM Shift LIMK1 (K) [2]: 1.5 K

SMILES: CC1(C)CNc2cc(NC(=O)c3cccnc3NCc3ccncc3)ccc21 [Motesanib Diphosphate (AMG-706), Motesanib Diphosphate]
- ΔTm at 10 µM [1]: 0.5 °C
- ΔTm at 10 µM [2]: 0.6 °C

SMILES: O=C(/C=C/c1ccc(O)c(O)c1)c1ccc(O)cc1O [Butein]
- ΔTm at 10 µM [1]: 1.9 °C
- ΔTm at 10 µM [2]: -0.6 °C

SMILES: C[S+]([O-])c1ccc(-c2nc(-c3ccncc3)c(-c3ccc(F)cc3)[nH]2)cc1 (stereo not shown) [SB203580]
- ΔTm at 10 µM [1]: 3.3 °C
- ΔTm at 10 µM [2]: 1.3 °C

SMILES: Cc1ccc(NC(=O)c2ccc(CN3CC[C@H](N(C)C)C3)c(C(F)(F)F)c2)cc1Nc1nccc(-c2cncnc2)n1 [Bafetinib]
- ΔTm at 10 µM [1]: 1.1 °C
- ΔTm at 10 µM [2]: 2.5 °C

SMILES: COc1ccc2c(Oc3ccc(NC(=O)c4c(C)n(CC(C)(C)O)n(-c5ccccc5)c4=O)nc3)ccnc2c1 [AMG-458]
- TM Shift LIMK2 (K) [1]: -0.8 K
- TM Shift LIMK1 (K) [2]: 1.3 K

SMILES: Nc1ncnc2c1c(COc1cccc(Cl)c1)nn2C1CCOCC1 [PF-4800567]
- ΔTm at 10 µM [1]: -0.8 °C
- ΔTm at 10 µM [2]: 1.3 °C

SMILES: Clc1ccc(Nc2nnc(Cc3ccncc3)c3ccccc23)cc1 [Vatalanib (PTK787) 2HCl, Vatalanib]
- ΔTm at 10 µM [1]: -0.3 °C
- ΔTm at 10 µM [2]: -0.5 °C

SMILES: C#Cc1cccc(Nc2ncnc3cc4c(cc23)OCCOCCOCCO4)c1 [Icotinib]
- ΔTm at 10 µM [1]: -0.6 °C
- ΔTm at 10 µM [2]: -0.2 °C

SMILES: O=C(NCc1cccc(O)c1)Nc1nc(-c2ccncc2)cs1 [RKI-1447]
- TM Shift LIMK2 (K) [1]: 0.8 K
- TM Shift LIMK1 (K) [2]: 1.4 K

SMILES: O=C(NC[C@H](O)CO)c1ccncc1Nc1ccc(I)cc1F [Pimasertib (AS-703026), Pimasertib]
- ΔTm at 10 µM [1]: 2.1 °C
- ΔTm at 10 µM [2]: 0.8 °C

SMILES: C[C@H](Nc1ncnc2nc[nH]c12)c1cc2cccc(Cl)c2c(=O)n1-c1ccccc1 [IPI-145 (INK1197)]
- ΔTm at 10 µM [1]: -0.6 °C
- ΔTm at 10 µM [2]: -1.5 °C

SMILES: CNC(=O)c1nn(C)c2c1C(C)(C)Cc1cnc(Nc3ccc(N4CCN(C)CC4)cc3)nc1-2 [Milciclib (PHA-848125), Milciclib]
- ΔTm at 10 µM [1]: 0.6 °C
- ΔTm at 10 µM [2]: 0.2 °C

SMILES: CC[C@H](CO)Nc1nc(NCc2ccccc2)c2ncn(C(C)C)c2n1 [Seliciclib]
- TM Shift LIMK2 (K) ([1]; 10 µM): 0.0 K
- TM Shift LIMK2 (K) ([1]; listed as Roscovitine (Seliciclib,CYC202), 10 µM): -1.3 K
- TM Shift LIMK1 (K) [2]: 0.1 K
- TM Shift LIMK1 (K) ([2]; listed as Roscovitine (Seliciclib,CYC202)): -0.4 K

SMILES: CN(C[C@@H]1COCCO1)S(=O)(=O)Nc1ccc2ccc3ncc(-c4cnn(C)c4)cc3c(=O)c2c1 [MK-2461]
- ΔTm at 10 µM [1]: 0.3 °C
- ΔTm at 10 µM [2]: 0.8 °C

Reference: paper PMC6835155, “Lessons from LIMK1 enzymology and their impact on inhibitor design” (Biochemical Journal, 2019)
